Results from PMC11527692, “Tailored biosynthesis of diosmin through reconstitution of the flavonoid pathway in Nicotiana benthamiana” (Frontiers in Plant Science, 2024).

Legend:
Cs1,6RhaT = molecular target: T1, Cs1,6RhaT (Citrus sinensis, UniProt A7ISD3); experiment: substrate feeding of E. coli expressing the GST fusion, UPLC-DAD-QToF/MS of product; assay type: cell-based; settings: product diosmin; 100 μM substrate, 28 °C, 3 h; whole culture
T1 sequence (A7ISD3 1-475): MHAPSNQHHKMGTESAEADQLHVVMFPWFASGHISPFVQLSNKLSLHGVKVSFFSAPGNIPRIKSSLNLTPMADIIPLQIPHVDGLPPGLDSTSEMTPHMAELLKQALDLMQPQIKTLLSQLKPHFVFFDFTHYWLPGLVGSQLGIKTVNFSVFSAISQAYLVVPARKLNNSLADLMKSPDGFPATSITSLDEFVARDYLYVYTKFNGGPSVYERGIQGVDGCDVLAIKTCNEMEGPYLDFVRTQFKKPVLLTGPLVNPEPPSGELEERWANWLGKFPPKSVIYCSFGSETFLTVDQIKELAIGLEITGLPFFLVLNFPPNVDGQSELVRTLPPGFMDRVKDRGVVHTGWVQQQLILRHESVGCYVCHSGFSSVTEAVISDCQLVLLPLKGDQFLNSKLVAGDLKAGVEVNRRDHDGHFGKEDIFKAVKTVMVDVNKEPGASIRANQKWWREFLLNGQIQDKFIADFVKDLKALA

PaF4′OMT = molecular target: T2, PaF4′OMT (Plagiochasma appendiculatum, UniProt A0A1X9Y2Y6); experiment: substrate feeding of E. coli expressing the GST fusion, HPLC of product; assay type: cell-based; settings: product diosmetin; 100 μM substrate (methods name diosmetin, results name luteolin), 28 °C, 3 h; whole culture
T2 sequence (A0A1X9Y2Y6 1-391): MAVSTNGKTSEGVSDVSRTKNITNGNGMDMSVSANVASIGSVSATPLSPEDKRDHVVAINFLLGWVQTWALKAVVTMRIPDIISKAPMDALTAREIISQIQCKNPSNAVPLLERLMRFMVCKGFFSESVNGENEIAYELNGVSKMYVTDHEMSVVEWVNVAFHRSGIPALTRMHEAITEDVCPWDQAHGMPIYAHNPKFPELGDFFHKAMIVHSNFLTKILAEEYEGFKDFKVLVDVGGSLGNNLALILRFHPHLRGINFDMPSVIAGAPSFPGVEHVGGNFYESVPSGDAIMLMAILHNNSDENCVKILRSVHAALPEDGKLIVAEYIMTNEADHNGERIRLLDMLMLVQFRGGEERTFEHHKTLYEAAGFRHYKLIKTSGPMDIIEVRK

Row | Compound | substrate feeding of E. coli expressing the GST fusion, UPLC-DAD-QToF/MS of prod (Cs1,6RhaT) | substrate feeding of E. coli expressing the GST fusion, HPLC of product (PaF4′OMT)
1 | COc1ccc(-c2cc(=O)c3c(O)cc(O[C@@H]4O[C@H](CO)[C@@H](O)[C@H](O)[C@H]4O)cc3o2)cc1O [diosmetin 7-O-β-D-glucopyranoside] | the cells expressing Cs1,6RhaT produced the most diosmin | 
2 | O=c1cc(-c2ccc(O)c(O)c2)oc2cc(O)cc(O)c12 [luteolin] |  | PaF4′OMT produced the most diosmetin from luteolin
